Source: ChEMBL document CHEMBL1150939, “Symplostatin 1: A dolastatin 10 analogue from the marine cyanobacterium Symploca hydnoides” (J Nat Prod, 1998)
Converted amounts (≈) assume the structure as drawn.

Key:
KB = assay: Cytotoxicity against human KB cells; type: functional, cell-based
A10 = assay: Induction of microtubule loss in rat A10 cells at 1 ng/mL; type: functional

| SMILES | IC50 (KB) [ng/mL] | Activity (A10) [%] |
| --- | --- | --- |
| CC[C@H](C)[C@@H]([C@@H](CC(=O)N1CCC[C@H]1[C@H](OC)[C@@H](C)C(=O)N[C@@H](Cc1ccccc1)c1nccs1)OC)N(C)C(=O)[C@@H](NC(=O)[C@H](C(C)C)N(C)C)C(C)C [DOLASTATIN-10] | < 0.1 |  |
| CC[C@H](C)[C@@H]([C@@H](CC(=O)N1CCC[C@H]1[C@H](OC)[C@@H](C)C(=O)N[C@@H](Cc1ccccc1)c1nccs1)OC)N(C)C(=O)[C@@H](NC(=O)[C@H]([C@@H](C)CC)N(C)C)C(C)C [SYMPLOSTATIN 1] | 0.3 (≈ 0.375 nM) | 80 |
